Assay results as given in patent US20150105252A1, “SUBSTITUTED PYRAZOLES AS HERBICIDES” (E I DU PONT DE NEMOURS AND COMPANY, priority 2013, published 2015).

Columns and labels:
foxtail, giant [1] = assay: Test A postemergence; assay type: in vivo, Setaria faberii
Procedure, shortened: (§1)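 After sowing in a sand–loam mix, pots received compound preemergence by directed soil spray, or postemergence once plants reached the one- to two-leaf stage (2–10 cm). Formulation contained surfactant in a non-phytotoxic solvent. Injury was scored visually after ~10 greenhouse days, 0–100 scale.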

foxtail, giant [2] = assay: Test A preemergence; assay type: in vivo, Setaria faberii; conditions: preemergence
Procedure, shortened: as §1

velvetleaf [3] = assay: Test A postemergence; assay type: in vivo, Abutilon theophrasti
Procedure, shortened: as §1

crabgrass, large [4] = assay: Test A postemergence; assay type: in vivo, Digitaria sanguinalis
Procedure, shortened: as §1

barnyardgrass [5] = assay: Test B flood; assay type: in vivo, Echinochloa crus-galli; conditions: 250 g ai/ha, visual rating on 0 to 100 scale (0 no effect, 100 complete control), 13 to 15 days
Procedure, shortened: (§2)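 Two-leaf-stage plants, pots flooded (3 cm above soil) and treated through the water, which stayed at that depth. After 13–15 days in greenhouse conditions, visual assessment versus controls: 0 is no effect, 100 complete control, dash means no result.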

pigweed [6] = assay: Test A postemergence; assay type: in vivo, Amaranthus retroflexus
Procedure, shortened: as §1

wheat [7] = assay: Test A postemergence; assay type: in vivo, Triticum aestivum
Procedure, shortened: as §1

crabgrass, large [8] = assay: Test A preemergence; assay type: in vivo, Digitaria sanguinalis; conditions: preemergence
Procedure, shortened: as §1

barnyardgrass [9] = assay: Test A preemergence; assay type: in vivo, Echinochloa crus-galli; conditions: preemergence
Procedure, shortened: as §1

barnyardgrass [10] = assay: Test A postemergence; assay type: in vivo, Echinochloa crus-galli
Procedure, shortened: as §1

rice = assay: Test B flood; assay type: in vivo, Oryza sativa; conditions: 250 g ai/ha, visual rating on 0 to 100 scale (0 no effect, 100 complete control), 13 to 15 days
Procedure, shortened: as §2

corn [11] = assay: Test A postemergence; assay type: in vivo, Zea mays
Procedure, shortened: as §1

ducksalad = assay: Test B flood; assay type: in vivo, Heteranthera limosa; conditions: 250 g ai/ha, visual rating on 0 to 100 scale (0 no effect, 100 complete control), 13 to 15 days
Procedure, shortened: as §2

sedge, umbrella = assay: Test B flood; assay type: in vivo, Cyperus difformis; conditions: 250 g ai/ha, visual rating on 0 to 100 scale (0 no effect, 100 complete control), 13 to 15 days
Procedure, shortened: as §2

wheat [12] = assay: Test A preemergence; assay type: in vivo, Triticum aestivum; conditions: preemergence
Procedure, shortened: as §1

morningglory [13] = assay: Test A preemergence; assay type: in vivo, Ipomoea spp.; conditions: preemergence
Procedure, shortened: as §1

corn [14] = assay: Test A preemergence; assay type: in vivo, Zea mays; conditions: preemergence
Procedure, shortened: as §1

velvetleaf [15] = assay: Test A preemergence; assay type: in vivo, Abutilon theophrasti; conditions: preemergence
Procedure, shortened: as §1

morningglory [16] = assay: Test A postemergence; assay type: in vivo, Ipomoea spp.
Procedure, shortened: as §1

pigweed [17] = assay: Test A preemergence; assay type: in vivo, Amaranthus retroflexus; conditions: preemergence
Procedure, shortened: as §1

[18] = Postemergence, 500 g ai/ha, visual rating after approx. 10 days, 0 to 100 scale (0 no effect, 100 complete control)
[19] = postemergence, 125 g ai/ha, about 10 days, visual rating on 0 to 100 scale (0 no effect, 100 complete control)
[20] = 125 g ai/ha, visual injury, 0 to 100 scale, approx. 10 days
[21] = 500 g ai/ha, visual injury after approx. 10 days, 0 to 100 scale (0 no effect, 100 complete control)
[22] = Postemergence, 500 g ai/ha, 0 to 100 scale (0 no effect, 100 complete control)

Row | Compound | Foxtail, Giant plant response rating (foxtail, giant [1]; [19]) | Foxtail, Giant plant response rating (foxtail, giant [2]; [20]) | Foxtail, Giant plant response rating (foxtail, giant [2]; [21]) | Velvetleaf plant response rating (velvetleaf [3]; [19]) | Crabgrass, Large plant response rating (crabgrass, large [4]; [19]) | Plant response rating, Barnyardgrass (barnyardgrass [5]) | Pigweed plant response rating (pigweed [6]; [19]) | Wheat plant response rating (wheat [7]; [19]) | Crabgrass, Large plant response rating (crabgrass, large [8]; [20]) | Crabgrass, Large plant response rating (crabgrass, large [8]; [21]) | Barnyardgrass plant response rating (barnyardgrass [9]; [20]) | Barnyardgrass plant response rating (barnyardgrass [9]; [21]) | Barnyardgrass plant response rating (barnyardgrass [10]; [19]) | Plant response rating, Rice (rice) | Corn plant response rating (corn [11]; [19]) | Plant response rating, Ducksalad (ducksalad) | Plant response rating, Sedge, Umbrella (sedge, umbrella) | Wheat plant response rating (wheat [12]; [20]) | Wheat plant response rating (wheat [12]; [21]) | Morningglory plant response rating (morningglory [13]; [20]) | also measured
1 | CCc1cc(-c2ccc(Br)cc2)nn1Cc1ccnc(C(F)(F)F)c1 [Compound 112] | 10 | 70 | 80 | 20 | 10 | 20 | 30 | 10 | 70 | 90 | 0 | 10 | 0 | 20 | 0 | 0 | 0 | 0 | 0 | 0 | Foxtail, Giant plant response rating (foxtail, giant [1]; [18]): 20; Velvetleaf plant response rating (velvetleaf [3]; [18]): 40; Crabgrass, Large plant response rating (crabgrass, large [4]; [18]): 20; Pigweed plant response rating (pigweed [6]; [18]): 90; Wheat plant response rating (wheat [7]; [18]): 40; Barnyardgrass plant response rating (barnyardgrass [10]; [18]): 20; Corn plant response rating (corn [11]; [18]): 30; Morningglory plant response rating (morningglory [13]; [21]): 0; Corn plant response rating (corn [14]; [20]): 0; Corn plant response rating (corn [14]; [21]): 0; Velvetleaf plant response rating (velvetleaf [15]; [20]): 0; Velvetleaf plant response rating (velvetleaf [15]; [21]): 10; Morningglory plant response rating (morningglory [16]; [18]): 70; Morningglory plant response rating (morningglory [16]; [19]): 40; Pigweed plant response rating (pigweed [17]; [20]): 0; Pigweed plant response rating (pigweed [17]; [21]): 50
2 | CCc1cc(-c2ccc(C(F)(F)F)cc2)nn1Cc1nc(C(F)(F)F)nn1C [Compound 115] | 30 | 90 | 90 | 60 | 50 | 0 | 90 | 0 | 90 | 100 | 20 | 80 | 30 | 20 | 20 | 0 | 80 | 0 | 20 | 0 | Foxtail, Giant plant response rating (foxtail, giant [1]; [18]): 80; Velvetleaf plant response rating (velvetleaf [3]; [18]): 100; Crabgrass, Large plant response rating (crabgrass, large [4]; [18]): 90; Pigweed plant response rating (pigweed [6]; [18]): 100; Wheat plant response rating (wheat [7]; [18]): 40; Barnyardgrass plant response rating (barnyardgrass [10]; [18]): 60; Corn plant response rating (corn [11]; [18]): 40; Morningglory plant response rating (morningglory [13]; [21]): 40; Corn plant response rating (corn [14]; [20]): 0; Corn plant response rating (corn [14]; [21]): 20; Velvetleaf plant response rating (velvetleaf [15]; [20]): 20; Velvetleaf plant response rating (velvetleaf [15]; [21]): 20; Morningglory plant response rating (morningglory [16]; [18]): 80; Morningglory plant response rating (morningglory [16]; [19]): 30; Pigweed plant response rating (pigweed [17]; [20]): 90; Pigweed plant response rating (pigweed [17]; [21]): 100
3 | CCc1cc(C(=O)NC2CC2)nn1Cc1cc(C(F)(F)F)nn1CC [Compound 118] | 10 | 70 | 90 | 50 | 40 | 0 | 80 | 0 | 100 | 100 | 40 | 100 | 30 | 0 | 20 | 30 | 85 | 0 | 30 | 70 | Foxtail, Giant plant response rating (foxtail, giant [1]; [18]): 70; Velvetleaf plant response rating (velvetleaf [3]; [18]): 80; Crabgrass, Large plant response rating (crabgrass, large [4]; [18]): 90; Pigweed plant response rating (pigweed [6]; [18]): 100; Wheat plant response rating (wheat [7]; [18]): 40; Barnyardgrass plant response rating (barnyardgrass [10]; [18]): 80; Corn plant response rating (corn [11]; [18]): 50; Morningglory plant response rating (morningglory [13]; [21]): 100; Corn plant response rating (corn [14]; [20]): 0; Corn plant response rating (corn [14]; [21]): 50; Velvetleaf plant response rating (velvetleaf [15]; [20]): 0; Velvetleaf plant response rating (velvetleaf [15]; [21]): 80; Morningglory plant response rating (morningglory [16]; [18]): 90; Morningglory plant response rating (morningglory [16]; [19]): 70; Pigweed plant response rating (pigweed [17]; [20]): 100; Pigweed plant response rating (pigweed [17]; [21]): 100
4 | CCc1cc(C(=O)NCC(F)(F)F)nn1Cc1cc(C(F)(F)F)nn1CC [Compound 119] | 20 | 20 | 80 | 50 | 20 | 0 | 60 | 0 | 70 | 100 | 0 | 70 | 10 | 0 | 0 | 40 | 75 | 0 | 20 | 20 | Foxtail, Giant plant response rating (foxtail, giant [1]; [22]): 50; Velvetleaf plant response rating (velvetleaf [3]; [22]): 70; Crabgrass, Large plant response rating (crabgrass, large [4]; [22]): 60; Pigweed plant response rating (pigweed [6]; [22]): 90; Wheat plant response rating (wheat [7]; [22]): 10; Barnyardgrass plant response rating (barnyardgrass [10]; [22]): 60; Corn plant response rating (corn [11]; [22]): 50; Morningglory plant response rating (morningglory [13]; [21]): 60; Corn plant response rating (corn [14]; [20]): 0; Corn plant response rating (corn [14]; [21]): 30; Velvetleaf plant response rating (velvetleaf [15]; [20]): 0; Velvetleaf plant response rating (velvetleaf [15]; [21]): 30; Morningglory plant response rating (morningglory [16]; [22]): 100; Morningglory plant response rating (morningglory [16]; [19]): 90; Pigweed plant response rating (pigweed [17]; [20]): 80; Pigweed plant response rating (pigweed [17]; [21]): 100
